Patent US20250161238A1, “NMDAR Antagonists Prevent Ageing and Aging-Associated Conditions and Diseases Through Increasing 20S Proteasome Activity” (priority 2022, published 2025)

Experiments:
C. elegans = test: NADP+ and NADPH+ amount in C. elegans; format: in vivo; details: 19th day
Text: Therefore, the amount of NADP+ and NADPH+ were investigated in C. elagans.

mice = test: Open Field Maze (OFM) tests in aged mice; format: in vivo
Text: Another test showing locomotor activity in mice is Open Field Maze (OFM). The OFM is one of the most widely used platforms which allow the researcher to measure behaviors ranging from overall locomotor activity to anxiety-related emotional behaviors. The first and most important specific parameter to measure in the OFM is total ambulatory distance.
The experimental protocols were approved by the Ethics Committee of Ankara University, Faculty of Medicine, Medical Sciences Experimental Research and Application Center (Date: Dec. 11, 2019 and Decision number: 2019-22-189). Adult (12-mounts-old) C57BL/6 mice (5 for each group) were used. The mice were housed at the Experimental Animal Research Laboratory of Ankara University Faculty of Medicine. Food and water were given without restriction. The ambient temperature was kept at 21±2° C., and locomotor activity tests were performed at this temperature. The animals were housed in a room with a 12-hour light/dark cycle. The procedures in the study were performed in accordance with the Ankara University Animal Care Committee according to international guidelines. Memantine (Sigma-Aldrich) was administered orally at 3 mg/Kg/per day with drinking water of one-year-old mice. Tests related to locomotor activities of the mice were recorded and available.
Open Field Test described firstly Hall for “emotionality” (Hall, 1934). Open Field test is used for anxiety-like behavior (ALB) and locomotor activity. We conducted the test in a hypethral box, which was made of 62×68 cm blueboard. The base of the box was divided into 20 equal rectangles. Animals had placed in the central region of Open Field Test. The first 5 min of the record was used for the analysis of behavioral parameters such as total distance traveled (horizontal locomotor activity), total rearing number (vertical locomotor activity), central zone time (ALB), Central zone Latency (the time of first return to the central region: ALB), central zone entrance (ALB), unsupported rearing (vertical locomotor activity without touch test wall and exploratory behavior, sensitive for ALB), central escape latency (first escape time from central zone: ALB) (Çalιşkan et al, 2019, Çalιşkan et al, 2020).

amyloid = test: Amyloid staining of mouse tissues; format: in vivo; details: mice at 22 months
Text: In the next study, the effects of NMDAR blocker on amyloid accumulation in brain, liver, and kidney of mice with the presence of memantine and control mice groups at 22 months were investigated by amyloid staining.
Whole frozen tissues were sectioned with a microtome and fixed in 4% paraformaldehyde, Tissues were washed in PBS and the individual staining methods used in accordance with the manufacturer's recommendations. Total pixels from fluorescence in the images were quantified using Adobe Photoshop software CS2 (Adobe Systems), and normalized to a nuclear stain.

NMDA receptor = details: cited from earlier work

CC12CC3CC(C)(C1)CC(N)(C3)C2 [memantine, 3,5-dimethyladamantan-1-amine]
NADP+ compared to C. elegans without treatment (C. elegans): 2 folds | Central zone time (mice; 5-minute movements): 4 times | Central latency time (mice; P 0.07): differed at least twice | Central zone entrance (mice; P 0.08): differed at least twice | Central escape latency (mice; P 0.4): differed at least twice | total ambulatory distance (mice; five minute recordings): nearly two times more | Peripheral zone time (mice; mouse, in vivo): mice not receiving memantine remained in the peripheral regions more | total rearing activity (mice; mouse, in vivo): twice as much rearing activity | amount of amyloid in brain tissue (amyloid): most significant difference | amount of amyloid in liver and kidney (amyloid): statistically significant decrease | block of NR2C and NR2D Subunits (NMDA receptor): preferentially blocks | effects at NR2A (NMDA receptor): weak effects | potency at NR1A/2B (NMDA receptor): intermediate potency | levels at which the mechanism of action is specific for antagonism of the NMDA receptor (NMDA receptor; does not affect other ligand-gated or Voltage gated channels): 1 to 10 µM
